Source: US11254640B2, “N-substituted indoles and other heterocycles for treating brain disorders” (The Regents of the University of California, priority 2019, dated 2022)
Read-outs that look alike come from different tables or passages of the source.

Assays:
Format in all cases: cell-based
[1] = tested on: 5HT2A sensor; test: 5HT2A sensor assay, agonist mode (sLight1.3s HEK293T stable line); conditions: percent relative to 5-HT at 100 uM; for 5HT2A Agonist mean @ 100 nM (%): 100 nM compound; for 5HT2A Agonist mean @ 10 μM (%): 10 μM compound; for 5HT2A Agonist mean @ 100 μM (%): 100 μM compound
Experimental: In some embodiments, hallucinogenic potential of a compound of the present invention is determined in vitro. In some embodiments, hallucinogenic potential of a compound of the present invention is determined using a 5HT2A sensor assay. In some embodiments, the 5HT2A sensor assay is in an agonist mode or an antagonist mode. In some embodiments, the 5HT2A sensor assay is in an agonist mode.
(§1) 5HT2A Sensor Assays. HEK293T (ATCC) 5HT2A sensor stable line (sLight1.3s) was generated via lentiviral transduction of HIV-EF1α-sLight1.3 and propagated from a single colony. Lentivirus was produced using 2nd generation lentiviral plasmids pHIV-EF1α-sLight1.3, pHCMV-G, and pCMV-deltaR8.2.
(§2) For the screening of the 41 compounds, sLight1.3s cells were plated in 96-well plates at a density of 40000 24-hours prior to imaging. On the day of imaging, compounds solubilized in DMSO were diluted from the 100 mM stock solution to working concentrations of 1 mM, 100 μM and 1 μM with a DMSO concentration of 1%. Immediately prior to imaging, cells growing in DMEM (Gibco) were washed 2× with HBSS (Gibco) and in agonist mode 180 μL of HBSS or in antagonist mode 160 μL of HBSS was added to each well after the final wash. For agonist mode, images were taken before and after the addition of the 20 μL compound working solution into the wells containing 180 μL HBSS. This produced final compound concentrations of 100 μM, 10 μM and 100 nM with a DMSO concentration of 0.1%. For antagonist mode, images were taken before and after addition of 20 μL of 900 nM 5-HT and again after 20 μL of the compound working solutions to produce final concentrations of 100 nM for 5HT and 100 μM, 10 μM and 100 nM for the compounds with a DMSO concentration of 0.1%. Each compound was tested in triplicates (3 wells) for each concentration (100 μM, 10 μM and 100 nM). Additionally, within each plate, 100 nM 5HT and 0.1% DMSO controls were also imaged.
(§3) Imaging was performed using the Leica DMi8 inverted microscope with a 40× objective using the FITC preset with an excitation of 460 nm and emission of 512-542 nm. For each well, the cellular membrane where the 5HT2A sensor is targeted was autofocused using the adaptive focus controls and 5 images from different regions within the well were taken with each image processed from a 2×2 binning.
(§4) For data processing, the membranes from each image was segmented and analyzed using a custom algorithm written in MATLAB producing a single raw fluorescence intensity value. For each well the 5 raw fluorescence intensity values generated from the 5 images were averaged and the change in fluorescence intensity (dFF) was calculated as: dFF=(Fsat−Fapo)/Fapo
(§5) For both agonist and antagonist modes, the fluorescence intensity values before compound addition in HBSS only were used as the Fapo values while the fluorescence intensity values after compound addition were used as the Fsat values.
(§6) For agonist mode, data are as percent activation relative to 5HT, where 0 is the average of the DMSO wells and 100 is the average of the 100 uM 5HT wells. For antagonist mode, the inactivation score was calculated as: Inactivation score=(dFFF(Compound+5HT)−dFF(5HT))/dFF(5HT)

[2] = tested on: 5HT2A sensor; test: 5HT2A sensor assay, antagonist mode (sLight1.3s HEK293T stable line); conditions: relative to 5-HT at 100 nM; for 5HT2A Antagonist mean @ 100 nM (%): 100 nM compound; for 5HT2A Antagonist mean @ 10 μM (%): 10 μM compound; for 5HT2A Antagonist mean @ 100 μM (%): 100 μM compound
Experimental: In some embodiments, the 5HT2A sensor assay is in an antagonist mode.
as §1, §2, §3, §4, §5, §6

[3] = tested on: rat cortical neurons; test: Neurite outgrowth assay; conditions: Cortical neurone, 1 hour treatment at DIV 4, analysed DIV 7, fold vs DMSO control
Text: Neurite outgrowth assay. Changes in the pattern of neurite outgrowth have been implicated in neurodegenerative disorders as well as traumatic injuries. The discovery of new compounds that can positively affect neuritogenesis are important for developing new therapeutics for neurological diseases. Measurement of neurite outgrowth of rat cortical neurons using an automated image-based assay was used to determine the neuroplastic effects of the compounds of the present invention. In some embodiments, a compound of the present invention increases the pattern of neurite outgrowth. In some embodiments, a compound of the present invention increases neurite average length compared to a control. In some embodiments, a compound of the present invention increases neurite branch points compared to a control. In some embodiments, a compound of the present invention increases neurite average length and neurite branch points compared to a control.
Neurite Outgrowth Assay. Rat cortical neurons (20,000 cells/well) were freshly isolated from embryonic day 18 rats and cultured in Neurobasal Medium (+B27). The cultured cells were plated in 96 well-plates (avoiding external wells). At DIV 4, the neurons were treated with compound or control (10 μM) for 1 hour followed by complete washout of the compound. At DIV 7, the neurons were analyzed. The experiments were performed in triplicate. Neurite outgrowth was measured analyzing the following parameters: Number of Cell Bodies, total neurite length (pixels), Root Count, Segments, Extremities Count and node points. Changes in the pattern of neurite outgrowth of the neurons were analyzed by immunocytochemistry against β-III-tubulin. Pictures were acquired by the CellInsight CX7 from Thermo Fisher and analyzed using its software. Results generated in the equipment were maximum neurite length, extremity count, root count, dendrite branch points, and total neurite length. The results were compared to DMSO control, representing the fold-change in neuronal outgrowth.

[4] = molecular target: T1, 5HT2A (Homo sapiens, UniProt P28223); test: Calcium flux assay (Calcium secondary messenger pathway); conditions: agonist mode
T1 construct: expressed in transfected cells
Text: Calcium Flux Assay. Calcium Secondary Messenger Pathway. The Calcium No Wash^PLUS assay monitors the activation of a GPCR (e.g., 5HT2A) via Gq secondary messenger signaling in a live cell, non-imaging assay format. Calcium mobilization in PathHunter® cell lines or other cell lines stably expressing Gq-coupled GPCRs (e.g., 5HT2A) is monitored using a calcium-sensitive dye that is loaded into cells. GPCR (e.g., 5HT2A) activation by a compound results in the release of calcium from intracellular stores and an increase in dye fluorescence that is measured in real-time. In some embodiments, the ability of a compound of the present invention to modulate 5-HT2A function is determined using a calcium flux assay. In some embodiments, a compound of the present invention activates a calcium flux assay.
Calcium Secondary Messenger Pathway. Cell lines were expanded from freezer stocks according to standard procedures. Cells were seeded in a total volume of 20 μL into black-walled, clear-bottom, Poly-D-lysine coated 384-well microplates and incubated at 37° C. for the appropriate time prior to testing. Assays were performed in 1× Dye Loading Buffer consisting of 1× Dye, 1× Additive A and 2.5 mM Probenecid in HBSS/20 mM Hepes. Probenicid was prepared fresh. Cells were loaded with dye prior to testing. Media was aspirated from cells and replaced with 20 μL Dye Loading Buffer. Cells were incubated for 30-60 minutes at 37° C.
For agonist determination, cells were incubated with sample to induce response. After dye loading, cells were removed from the incubator and 10 μL HBSS/20 mM Hepes was added. 3× vehicle was included in the buffer when performing agonist dose curves to define the EC80 for subsequent antagonist assays. Cells were incubated for 30 minutes at room temperature in the dark to equilibrate plate temperature. Intermediate dilution of sample stocks was performed to generate 4× sample in assay buffer. Compound agonist activity was measured on a FLIPR Tetra (MDS). Calcium mobilization was monitored for 2 minutes and 10 μL 4× sample in HBSS/20 mM Hepes was added to the cells 5 seconds into the assay.
Compound activity was analyzed using CBIS data analysis suite (ChemInnovation, CA). For agonist mode assays, percentage activity is calculated using the following formula: % Activity=100%×(mean RFU of test sample−mean RFU of vehicle control)/(mean MAX RFU control ligand−mean RFU of vehicle control).

[5] = read-out: Neurite Average Length @ 10 μM
[6] = read-out: Neurite Branch Points: @ 10 μM

T1 sequence (P28223 whole entry): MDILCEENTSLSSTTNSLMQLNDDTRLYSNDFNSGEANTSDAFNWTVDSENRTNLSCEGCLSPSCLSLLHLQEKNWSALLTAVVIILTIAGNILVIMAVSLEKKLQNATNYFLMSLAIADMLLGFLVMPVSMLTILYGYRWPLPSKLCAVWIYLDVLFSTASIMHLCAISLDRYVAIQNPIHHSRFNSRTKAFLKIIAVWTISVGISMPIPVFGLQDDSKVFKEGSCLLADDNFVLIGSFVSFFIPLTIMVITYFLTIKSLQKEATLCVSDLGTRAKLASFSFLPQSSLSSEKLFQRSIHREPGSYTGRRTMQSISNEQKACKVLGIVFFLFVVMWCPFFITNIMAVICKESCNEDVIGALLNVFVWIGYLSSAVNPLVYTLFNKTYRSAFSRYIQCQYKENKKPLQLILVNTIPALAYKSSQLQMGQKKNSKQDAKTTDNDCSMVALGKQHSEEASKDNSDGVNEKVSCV

Compound | 5HT2A Agonist mean @ 100 nM (%) [1] | 5HT2A Agonist mean @ 10 μM (%) [1] | 5HT2A Agonist mean @ 100 μM (%) [1] | 5HT2A Antagonist mean @ 100 nM (%) [2] | 5HT2A Antagonist mean @ 10 μM (%) [2] | 5HT2A Antagonist mean @ 100 μM (%) [2] | fold induction at 10 µM [3, 5] | fold induction at 10 µM [3, 6] | EC50 [4]
FC(F)(F)Oc1ccc2c(ccn2CCN2CCCCC2)c1 [Example 51, 1-(2-(piperidin-1-yl)ethyl)-5-(trifluoromethoxy)-1H-indole] | B (does not activate 5HT2A sensor assay in agonist mode) | B (does not activate 5HT2A sensor assay in agonist mode) | B (does not activate 5HT2A sensor assay in agonist mode) | A (inhibits 5HT response by >100%) | A (inhibits 5HT response by >100%) | A (inhibits 5HT response by >100%) | 1.5 to 3 | 1.5 to 3 | > 10 µM
FC(F)(F)Oc1ccc2c(ccn2CCN2CCOCC2)c1 [Example 52, 4-(2-(5-(trifluoromethoxy)-1H-indol-1-yl)ethyl)morpholine] | B (does not activate 5HT2A sensor assay in agonist mode) | B (does not activate 5HT2A sensor assay in agonist mode) | A (activates 5HT2A sensor assay in agonist mode) | A (inhibits 5HT response by >100%) | B (inhibits 5HT response by 75% to 100%) | B (inhibits 5HT response by 75% to 100%) | 1.5 to 3 | 1.5 to 3 | > 10 µM
CN(C)CCn1cnc2ccccc21 [Example 57, 2-(1H-benzo[d]imidazol-1-yl)-N,N-dimethylethan-1-amine] | B (does not activate 5HT2A sensor assay in agonist mode) | B (does not activate 5HT2A sensor assay in agonist mode) | B (does not activate 5HT2A sensor assay in agonist mode) | B (inhibits 5HT response by 75% to 100%) | A (inhibits 5HT response by >100%) | A (inhibits 5HT response by >100%) | 1.5 to 3 | 1.5 to 3 | > 10 µM
Cc1nc2ccccc2n1CCN(C)C [Example 58, N,N-dimethyl-2-(2-methyl-1H-benzo[d]imidazol-1-yl)ethan-1-amine] | B (does not activate 5HT2A sensor assay in agonist mode) | B (does not activate 5HT2A sensor assay in agonist mode) | A (activates 5HT2A sensor assay in agonist mode) | A (inhibits 5HT response by >100%) | A (inhibits 5HT response by >100%) | A (inhibits 5HT response by >100%) | 1.5 to 3 | 1.5 to 3 | > 10 µM
COc1cc2ccn(C[C@@H](C)N(C)C)c2cc1F [Example 61, (R)-1-(6-fluoro-5-methoxy-1H-indol-1-yl)-N,N-dimethylpropan-2-amine] | B (does not activate 5HT2A sensor assay in agonist mode) | B (does not activate 5HT2A sensor assay in agonist mode) | B (does not activate 5HT2A sensor assay in agonist mode) | A (inhibits 5HT response by >100%) | A (inhibits 5HT response by >100%) | A (inhibits 5HT response by >100%) | 1.5 to 3 | 1.5 to 3 | > 10 µM
COc1cc2ccn(C[C@@H](C)N(C)C)c2cc1OC [Example 62, (R)-1-(5,6-dimethoxy-1H-indol-1-yl)-N,N-dimethylpropan-2-amine] | B (does not activate 5HT2A sensor assay in agonist mode) | B (does not activate 5HT2A sensor assay in agonist mode) | A (activates 5HT2A sensor assay in agonist mode) | B (inhibits 5HT response by 75% to 100%) | B (inhibits 5HT response by 75% to 100%) | A (inhibits 5HT response by >100%) | 1.5 to 3 | 1.5 to 3 | > 10 µM
COc1cc(OC)c2c(ccn2C[C@@H](C)N(C)C)c1 [Example 63, (R)-1-(5,7-dimethoxy-1H-indol-1-yl)-N,N-dimethylpropan-2-amine] | B (does not activate 5HT2A sensor assay in agonist mode) | B (does not activate 5HT2A sensor assay in agonist mode) | B (does not activate 5HT2A sensor assay in agonist mode) | B (inhibits 5HT response by 75% to 100%) | B (inhibits 5HT response by 75% to 100%) | A (inhibits 5HT response by >100%) | 1.5 to 3 | 1.5 to 3 | > 10 µM
